pEC50: −log10 of the molar value.
Target: T1, human RXFP1 (Homo sapiens, UniProt Q9HBX9)
T1 construct: expressed in transfected cells
T1 sequence (Q9HBX9 1-757): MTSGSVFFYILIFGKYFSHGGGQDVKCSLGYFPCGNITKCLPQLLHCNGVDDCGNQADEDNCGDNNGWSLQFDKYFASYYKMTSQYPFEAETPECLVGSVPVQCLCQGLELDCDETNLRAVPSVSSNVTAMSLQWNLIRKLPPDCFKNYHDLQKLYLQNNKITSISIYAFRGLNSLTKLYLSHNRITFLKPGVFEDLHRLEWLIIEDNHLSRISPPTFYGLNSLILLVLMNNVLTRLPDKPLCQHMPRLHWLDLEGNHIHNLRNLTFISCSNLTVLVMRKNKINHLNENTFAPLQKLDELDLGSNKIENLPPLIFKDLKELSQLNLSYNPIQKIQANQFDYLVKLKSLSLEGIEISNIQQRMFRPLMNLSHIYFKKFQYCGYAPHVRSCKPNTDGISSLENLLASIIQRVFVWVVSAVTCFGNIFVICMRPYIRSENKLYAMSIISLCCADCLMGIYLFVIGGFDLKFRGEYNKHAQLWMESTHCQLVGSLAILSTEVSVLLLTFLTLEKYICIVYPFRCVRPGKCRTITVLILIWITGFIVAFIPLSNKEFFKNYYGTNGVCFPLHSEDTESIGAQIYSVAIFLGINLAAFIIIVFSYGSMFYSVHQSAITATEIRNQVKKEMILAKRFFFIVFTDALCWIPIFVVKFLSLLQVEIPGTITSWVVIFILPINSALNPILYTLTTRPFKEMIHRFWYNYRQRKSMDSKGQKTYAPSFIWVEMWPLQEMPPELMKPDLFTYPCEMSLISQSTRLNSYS
Assay: RXFP1 cAMP assay (hRXFP1 HEK293 cAMP assay, HTRF)
Assay type: cell-based
Conditions: HEK293 cells stably expressing human RXFP1, 30 min at room temperature, read-out: cAMP hRXFP1 HEK293 Assay EC50
Method in brief: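 In a stable human RXFP1 HEK293 line, compounds acted for 30 min at RT in buffer with 0.5 mM IBMX. HTRF then quantified cellular cAMP.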

Row | Structure (SMILES) | pEC50
1 | COc1c(F)cc(C2=NOC3CC(CO)CC23)cc1C(=O)N[C@H]1[C@@H](C(=O)N[C@H](C)C2(C)CC2(F)F)[C@H]2CC[C@@H]1/C2=C\C1CC1 (some centres unmarked) [compound 759] | 9.00
2 | CCc1cccc(/C=C2\C3CCC2[C@H](C(=O)Nc2ccc(F)c(C(F)(F)F)c2)[C@@H]3NC(=O)c2cc(F)c(F)cc2OC)c1 (some centres unmarked) [compound 29] | 6.96
3 | COc1cc(F)c(F)cc1C(=O)N[C@@H]1C2CCC(/C2=C/c2cccc(OC(F)F)c2)[C@@H]1C(=O)Nc1ccc(F)c(C(F)(F)F)c1 (some centres unmarked) [compound 27] | 6.42
4 | COc1ccc(-c2ccc(C(CC(=O)O)C(F)(F)F)cc2F)cc1C(=O)N[C@H]1[C@@H](C(=O)Nc2ccc(F)c(C(F)(F)F)c2)[C@H]2CC[C@@H]1/C2=C\C1CCCC1 (some centres unmarked) [compound 892] | 8.00
5 | COc1ccc(-c2cc(C(=O)O)ccc2F)cc1C(=O)N[C@@H]1C2CCC(/C2=C/c2cncnc2)[C@@H]1C(=O)Nc1ccc(F)c(C(F)(F)F)c1 (some centres unmarked) [compound 129] | 7.22
6 | COc1ccc(C2=NOC3COCC23)cc1C(=O)N[C@H]1[C@@H](C(=O)Nc2cc(C(F)(F)F)c(F)cc2F)[C@H]2CC[C@@H]1/C2=C\C1CC1 (some centres unmarked) [compound 767] | 8.52
7 | COc1ccc(-c2cc(C(C)OC(=O)Nc3ccccc3)ccc2F)cc1C(=O)N[C@H]1[C@@H](C(=O)Nc2ccc(F)c(C(F)(F)F)c2)[C@H]2CC[C@@H]1/C2=C\C1CC1 (stereo partly drawn) [Example 222, 1-(3′-(((1R,2R,3S,4R,Z)-7-(cyclopropylmethylene)-3-((4-fluoro-3-(trifluoromethyl)phenyl)carbamoyl)bicyclo[2.2.1]heptan-2-yl)carbamoyl)-6-fluoro-4′-methoxy-[1,1′-biphenyl]-3-yl)ethyl phenylcarbamate] | 9.00
8 | COc1ccc(-c2cc(C(OC(=O)NC34CC(C3)C4)C(F)(F)F)ccc2F)cc1C(=O)N[C@H]1[C@@H](C(=O)Nc2ccc(F)c(C(F)(F)F)c2)[C@H]2CC[C@@H]1/C2=C\C1CC1 (single isomer, unassigned) [Example 206] | 9.00
9 | COc1c(F)cc(C2=NOC3CC(CO)CC23)cc1C(=O)N[C@H]1[C@@H](C(=O)NC23CC(C)(C2)C3)[C@H]2CC[C@@H]1/C2=C\C1CC1 (some centres unmarked) [compound 773] | 8.41
10 | COc1c(F)cc(C2=NOC3CC(CO)CC23)cc1C(=O)N[C@H]1[C@@H](C(=O)N[C@H](C)C2(C)CC2)[C@H]2CC[C@@H]1/C2=C\C1CC1 (some centres unmarked) [compound 757] | 9.05
11 | CCOC(=O)C(NC(=O)C1CCOCC1)c1cnn(-c2ccc(OC)c(C(=O)N[C@@H]3C4CCC(/C4=C/C(F)(F)F)[C@@H]3C(=O)Nc3ccc(F)c(C(F)(F)F)c3)c2)c1 (some centres unmarked) [Example 346] | 6.77
12 | O=C(NC1CCC1)OC(c1ccc(F)c(-c2ccc(OCc3ccccc3)c(C(=O)N[C@@H]3C4CCC(/C4=C/C4CC4)[C@@H]3C(=O)Nc3ccc(F)c(C(F)(F)F)c3)c2)c1)C(F)(F)F (some centres unmarked) [compound 252] | 7.96
13 | COc1ccc(C2=NOC3COCC23)cc1C(=O)N[C@H]1[C@@H](C(=O)Nc2ccccc2C)[C@H]2CC[C@@H]1/C2=C\C1CC1 (some centres unmarked) [compound 596] | 6.99
14 | COc1ccc(-c2cc(C(=O)NS(=O)(=O)c3ccccc3)ccc2F)cc1C(=O)N[C@@H]1C2CCC(C2=C(C)C)[C@@H]1C(=O)Nc1ccc(F)c(C(F)(F)F)c1 (some centres unmarked) [Example 150] | 6.72
15 | COc1ccc(-c2cc(C(F)(F)F)cnc2F)cc1C(=O)N[C@@H]1C2CCC(/C2=C/C2CC2)[C@@H]1C(=O)Nc1ccc(F)c(C(F)(F)F)c1 (some centres unmarked) [compound 282] | 7.60
16 | COc1ccc(C2=NO[C@H]3C[C@H](CO)C[C@@H]23)cc1C(=O)N[C@H]1[C@@H](C(=O)Nc2ccc(F)c(C(F)(F)F)c2)[C@H]2CC[C@@H]1/C2=C\C1C[C@@H](F)[C@@H](F)C1 (some centres unmarked) [compound 828] | 8.48
17 | COc1ccc(-c2cc(C(OC(=O)NC3CCCC3)C(F)(F)F)ccc2F)cc1C(=O)N[C@@H]1C2CCC(/C2=C/C2CC2)[C@@H]1C(=O)Nc1ccc(F)c(C(F)(F)F)c1 (some centres unmarked) [compound 219] | 8.52
18 | CCO/N=C1\C2CCC1[C@H](C(=O)Nc1ccc(F)c(C(F)(F)F)c1)[C@@H]2NC(=O)c1cc(F)c(F)cc1OC (some centres unmarked) [compound 133] | 5.77
19 | COc1ccc(-c2cn(C)nc2C)cc1C(=O)N[C@H]1[C@@H](C(=O)Nc2ccc(F)c(C(F)(F)F)c2)[C@H]2CC[C@@H]1C2=C(C)C [compound 92] | 6.42
20 | COc1ccc(C2=NOC3COCC23)cc1C(=O)N[C@H]1[C@@H](C(=O)N[C@H](C)C2(C)CCC2)[C@H]2CC[C@@H]1/C2=C\C1CC1 (some centres unmarked) [compound 769] | 8.48
21 | COc1cc(F)c(F)cc1C(=O)N[C@@H]1C2CCC(/C2=C/c2ccncc2)[C@@H]1C(=O)Nc1ccc(F)c(C(F)(F)F)c1 (some centres unmarked) [compound 16] | 6.11
22 | COc1cc(F)c(F)cc1C(=O)NC1C2CCC(C2=Cc2ncco2)C1C(=O)Nc1ccc(F)c(C(F)(F)F)c1 (centres unmarked) [Example 145] | 5.89

Continued by rising pEC50, values first:

Row | pEC50 | Structure (SMILES)
23 | 5.62 | COc1ccc(-c2cc(C(=O)O)ccc2F)cc1C(=O)N[C@@H]1C2CCC(/C2=C/C2CC2)[C@@H]1C(=O)NC1Cc2ccccc2C1 (some centres unmarked) [compound 308]
24 | 5.63 | O=C(N[C@H]1[C@@H](C(=O)Nc2ccc(F)c(C(F)(F)F)c2)[C@H]2CC[C@@H]1/C2=C\C1CC1)c1cc(C2=NOC3CC(CO)CC23)ccc1F (single isomer, unassigned) [compound 717]
25 | 5.74 | COc1ccc(-c2nc(C(=O)O)co2)cc1C(=O)N[C@@H]1C2CCC(C2=C(C)C)[C@@H]1C(=O)Nc1ccc(F)c(C(F)(F)F)c1 (some centres unmarked) [Example 113]
26 | 5.86 | COc1ccc(N2CCC(NC(=O)OC(C)(C)C)C2)cc1C(=O)N[C@@H]1C2CCC(/C2=C/C(F)(F)F)[C@@H]1C(=O)Nc1ccc(F)c(C(F)(F)F)c1 (some centres unmarked) [compound 334]
27 | 5.89 | COc1ccc(N2CCCC(CO)C2)cc1C(=O)N[C@@H]1C2CCC(/C2=C/C2CC2)[C@@H]1C(=O)Nc1ccc(F)c(C(F)(F)F)c1 (single isomer, unassigned) [compound 704]
28 | 6.29 | COc1cc(F)c(F)cc1C(=O)N[C@@H]1C2CCC(/C2=C/c2cncnc2)[C@@H]1C(=O)Nc1ccc(F)c(C(F)(F)F)c1 (some centres unmarked) [compound 63]
29 | 6.72 | COc1ncc(-c2ccc(OC)c(C(=O)N[C@H]3[C@@H](C(=O)Nc4ccc(F)c(C(F)(F)F)c4)[C@H]4CC[C@@H]3C4=C(C)C)c2)cn1 [compound 88]
30 | 6.82 | CC=C1C2CCC1[C@H](C(=O)Nc1ccc(F)c(C(F)(F)F)c1)[C@@H]2NC(=O)c1cc(F)c(F)cc1OC (some centres unmarked) [compound 50]
31 | 7.03 | COc1cc(F)c(F)cc1C(=O)N[C@@H]1C2CCC(/C2=C/c2cccc(C)c2)[C@@H]1C(=O)Nc1ccc(F)c(C(F)(F)F)c1 (some centres unmarked) [compound 24]
32 | 7.55 | COc1ccc(-c2cc(CO)on2)cc1C(=O)N[C@H]1[C@@H](C(=O)Nc2ccc(F)c(C(F)(F)F)c2)[C@H]2CC[C@@H]1/C2=C\C1CC1 [Example 423, (1R,2S,3R,4R,Z)-7-(cyclopropylmethylene)-N-(4-fluoro-3-(trifluoromethyl)phenyl)-3-(5-(5-(hydroxymethyl)isoxazol-3-yl)-2-methoxybenzamido)bicyclo [2.2.1]heptane-2-carboxamide]
33 | 7.96 | COc1ccc(C2=NOC(C(=O)O)C2)cc1C(=O)N[C@@H]1C2CCC(/C2=C/C2CCC2)[C@@H]1C(=O)Nc1ccc(F)c(C(F)(F)F)c1 (some centres unmarked) [compound 387]
34 | 8.29 | COc1ccc(-c2cc(C(COC(=O)NC3CCC3)C(F)(F)F)ccc2F)cc1C(=O)N[C@H]1[C@@H](C(=O)Nc2ccc(F)c(C(F)(F)F)c2)[C@H]2CC[C@@H]1/C2=C\C1CC1 (some centres unmarked) [compound 878]
35 | 8.32 | COc1ccc(C2=NOC3CC(CF)CC23)cc1C(=O)N[C@H]1[C@@H](C(=O)Nc2ccc(F)c(C(F)(F)F)c2)[C@H]2CC[C@@H]1/C2=C\C1CC1 (some centres unmarked) [compound 866]
36 | 8.41 | COc1ccc(C2=NOC3CC(CO)CC23)cc1C(=O)N[C@H]1[C@@H](C(=O)NC2(C)CCCC2)[C@H]2CC[C@@H]1/C2=C\C1CC1 (some centres unmarked) [compound 466]
37 | 8.48 | COc1c(F)cc(-c2cnc3n2CC(O)CC3)cc1C(=O)N[C@H]1[C@@H](C(=O)Nc2ccc(F)c(C(F)(F)F)c2)[C@H]2CC[C@@H]1/C2=C\C1CC1 (some centres unmarked) [compound 753]
38 | 8.49 | O=C(N[C@H]1[C@@H](C(=O)Nc2ccc(F)c(C(F)(F)F)c2)[C@H]2CC[C@@H]1/C2=C\C1CC1)c1cc(C2=NOC3CC(CO)CC23)cc(F)c1OCC1CC1 (some centres unmarked) [compound 794]
39 | 8.54 | COc1ccc(C2=NO[C@H]3CC(CO)C[C@@H]23)cc1C(=O)N[C@H]1[C@@H](C(=O)Nc2ccc(F)c(C(F)(F)F)c2)[C@H]2CC[C@@H]1/C2=C\CCC(F)(F)F (some centres unmarked) [compound 825]
40 | 9.00 | COc1c(F)cc(C2=NOC3CC(C)(CO)CC23)cc1C(=O)N[C@H]1[C@@H](C(=O)N[C@H](C)C2(C)CC2)[C@H]2CC[C@@H]1/C2=C\C1CC1 (some centres unmarked) [compound 961]
41 | 9.00 | COc1ccc(-c2ccc(C3=NOC(CO)C3)cc2F)cc1C(=O)N[C@@H]1C2CCC(/C2=C/C2CCCC2)[C@@H]1C(=O)Nc1ccc(F)c(C(F)(F)F)c1 (some centres unmarked) [compound 897]
